In patent publication US20200353052A1, “COMPOSITION FOR PROMOTING GOBLET CELL PROLIFERATION OR MUCIN SECRETION COMPRISING THYMOSIN BETA 4 OR DERIVATIVE THEREOF AS ACTIVE INGREDIENT” (G-TREEBNT CO., LTD., priority 2017, published 2020):

Tests used:
Assay type in all cases: in vivo, NOD.B10-H2b mice
[1] = tested on: goblet cells in the conjunctiva; test: Goblet cell number by PAS staining of eyeball sections from dry eye-induced mice after eye drop instillation; conditions: eye drop instillation for 10 days; PAS staining photographs (FIG. 2)
Protocol: (§1) 12-week-old or older NOD.B10-H2b mice were kept in a chamber with a humidity of 40% or lower for 10 days. Scopolamine hydrobromide (Sigma-Aldrich, SLBR8568V) at a concentration of 0.5 mg/0.2 ml was injected subcutaneously into the thigh 4 times (9 am, 12 pm, 3 pm, and 6 pm) daily while the mice were kept in the chamber. After 10 days, tear secretion volume and corneal smoothness score were measured, and only those mice with a tear secretion volume of 0.06 μl or lower and a corneal smoothness score of 2 or lower were selected.
(§2) For each test drug, eye drop instillation was performed as follows: Vehicle, 4 times a day; Diquas (Santen Pharmaceutical Co., Ltd., Japan), 6 times a day; Xiidra (Shire plc, USA), twice a day; and GBT-201, twice or 4 times a day. After 10 days, each group of mice was sacrificed, the eyeballs were collected, and tissue immunostaining and molecular biological analysis were performed (FIG. 1).
In order to identify whether thymosin beta 4 promotes proliferation of goblet cells, which are cells that secrete mucin in the conjunctiva, the eyeballs of the mice sacrificed in Experimental Example 1 were collected and assessed through periodicacid-Schiff (PAS) staining. […]

[2] = tested on: mucin secreted in the conjunctiva; test: Amount of mucin secreted by Alcian blue staining of eyeball sections from dry eye-induced mice after eye drop instillation; conditions: eye drop instillation for 10 days; Alcian blue staining photographs (FIG. 4)
Protocol: as §1, §2
In order to identify whether thymosin beta 4 results in an increase in amount of mucin secreted in the conjunctiva, the eyeballs of the mice sacrificed in Experimental Example 1 were collected and assessed through Alcian blue staining.
Specifically, the eyeballs of the mice sacrificed in Experimental Example 1 were collected, and the eyes and adnexa, which had been fixed in formalin for 3 days, were cut into 6 μm sections using a microtome. […]

Muc1 = test: Immunofluorescence staining of Muc1 in cornea and conjunctiva of dry eye-induced mice; conditions: corneal and conjunctival epithelium; eye drop instillation for 10 days; immunofluorescence (FIGS. 6 and 7)
Protocol: as §1
as §2, with “1). […]” for “1).”
(§3) Specifically, the eyeballs of the mice sacrificed in Experimental Example 1 were collected, and the eyes and adnexa, which had been fixed in formalin for 3 days, were cut into 6 μm sections using a microtome. […] The mounted slide was photographed using a fluorescence microscope (Leica DM2500, Leica Microsystems GmbH, Wetzlar, Germany).

Muc4 = test: Immunofluorescence staining of Muc4 in cornea and conjunctiva of dry eye-induced mice; conditions: corneal and conjunctival epithelium; eye drop instillation for 10 days; immunofluorescence (FIGS. 6 and 7)
Protocol: as §1
as §2, with “1). […]” for “1).”
as §3

Muc16 = test: Immunofluorescence staining of Muc16 in cornea and conjunctiva of dry eye-induced mice; conditions: corneal and conjunctival epithelium; eye drop instillation for 10 days; immunofluorescence (FIGS. 6 and 7)
Protocol: as §1
as §2, with “1). […]” for “1).”
as §3

Muc5AC = test: Immunofluorescence staining of Muc5AC in cornea and conjunctiva of dry eye-induced mice; conditions: eye drop instillation for 10 days, immunofluorescence (FIGS. 6 and 7)
Protocol: as §1
as §2, with “1). […]” for “1).”
as §3

thymosin beta 4 (SDKPDMAEIEKFDKSKLKKTETQEKNPLPSKETIEQEKQAGES; thymosin beta 4; listed as Homo sapiens)
increased: number of goblet cells as compared with the DS D10 control group, visually identified [1] | amount of mucin secreted as compared with the DS D10 control group, visually identified [2] | expression level of Muc1 as compared with the DS D10 control group, visually identified (Muc1) | expression level of Muc4 as compared with the DS D10 control group, visually identified (Muc4) | expression level of Muc16 as compared with the DS D10 control group, visually identified (Muc16) | expression level of Muc5AC as compared with the DS D10 control group, visually identified (Muc5AC)
